Assay results published in PubChem BioAssay AID1259411 (Chemical Carcinogenesis Research Information System (CCRIS), 2018).
Active and inactive are the calls of the source. The rule behind the calls is not given here.

System: rodent carcinogenicity bioassays, tumor incidence
Assay: CCRIS carcinogenicity studies
Outline: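 Archive of carcinogenicity, mutagenicity, tumor promotion and tumor inhibition results drawn from journals, NCI reports and other sources, expert-reviewed; covers 1985-2011 and is no longer updated.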

S=C1NCCN1
carcinogen call (Species: MOUSE, Strain/Sex: B6AKF1/MALE,FEMALE, Route: GAVAGE/ORAL, Dose: 215 MG/KG IN GELATIN FROM DAY 7-28 OF LIFE THEN 646 PPM IN DIET, Tumor Site: Type of Lesion: LIVER: HEPATOMA, LYMPHATIC SYSTEM: LYMPHOMA): active; positive
carcinogen call (Species: MOUSE, Strain/Sex: B6C3F1/FEMALE, Route: ORAL, Dose: 0, 100, 330, 1000 PPM IN FEED FOR 24 MO, ADMINISTRATION BEGUN AT 8 WK OF AGE TO ANIMALS EXPOSED PERINATALLY BY ORAL, Dose: 0, 100, 330, 1000 PPM IN FEED FOR 24 MO, ADMINISTRATION BEGUN AT 8 WK OF AGE TO ANIMALS EXPOSED PERINATALLY BY ORAL, Tumor Site: Type of Lesion: LIVER: HEPATOCELLULAR ADENOMA, HEPATOCELLULAR CARCINOMA, PITUITARY GLAND, PARS DISTALIS: ADENOMA, THYROID GLAND: FOLLICU, Tumor Site: Type of Lesion: LIVER: HEPATOCELLULAR ADENOMA, HEPATOCELLULAR CARCINOMA, PITUITARY GLAND, PARS DISTALIS: ADENOMA, THYROID GLAND: FOLLICU): active; positive
carcinogen call (Species: MOUSE, Strain/Sex: B6C3F1/FEMALE, Route: ORAL, Dose: 0, 330, 1000 PPM IN FEED FOR 24 MO (STUDY DURATION: 2 YR), Dose: 0, 330, 1000 PPM IN FEED FOR 24 MO (STUDY DURATION: 2 YR), Tumor Site: Type of Lesion: LIVER: HEPATOCELLULAR ADENOMA, HEPATOCELLULAR CARCINOMA, PITUITARY GLAND, PARS DISTALIS: ADENOMA, THYROID GLAND: FOLLICU, Tumor Site: Type of Lesion: LIVER: HEPATOCELLULAR ADENOMA, HEPATOCELLULAR CARCINOMA, PITUITARY GLAND, PARS DISTALIS: ADENOMA, THYROID GLAND: FOLLICU): active; positive
carcinogen call (Species: MOUSE, Strain/Sex: B6C3F1/MALE,FEMALE, Route: GAVAGE/ORAL, Dose: 215 MG/KG IN GELATIN FROM DAY 7-28 OF LIFE THEN 646 PPM IN DIET, Tumor Site: Type of Lesion: LIVER: HEPATOMA, LYMPHATIC SYSTEM: LYMPHOMA): active; positive
carcinogen call (Species: MOUSE, Strain/Sex: B6C3F1/MALE, Route: ORAL, Dose: 0, 100, 330, 1000 PPM IN FEED FOR 24 MO, ADMINISTRATION BEGUN AT 8 WK OF AGE TO ANIMALS EXPOSED PERINATALLY BY ORAL, Dose: 0, 100, 330, 1000 PPM IN FEED FOR 24 MO, ADMINISTRATION BEGUN AT 8 WK OF AGE TO ANIMALS EXPOSED PERINATALLY BY ORAL, Tumor Site: Type of Lesion: LIVER: HEPATOCELLULAR CARCINOMA, HEPATOCELLULAR ADENOMA OR CARCINOMA, THYROID GLAND: FOLLICULAR CELL ADENOMA, FOLLICULAR): active; positive
carcinogen call (Species: MOUSE, Strain/Sex: B6C3F1/MALE, Route: ORAL, Dose: 0, 330, 1000 PPM IN FEED FOR 24 MO (STUDY DURATION: 2 YR), Dose: 0, 330, 1000 PPM IN FEED FOR 24 MO (STUDY DURATION: 2 YR), Tumor Site: Type of Lesion: LIVER: HEPATOCELLULAR CARCINOMA, PITUITARY GLAND, PARS DISTALIS: ADENOMA, THYROID GLAND: FOLLICULAR CELL ADENOMA, Tumor Site: Type of Lesion: LIVER: HEPATOCELLULAR CARCINOMA, PITUITARY GLAND, PARS DISTALIS: ADENOMA, THYROID GLAND: FOLLICULAR CELL ADENOMA): active; positive
carcinogen call (Species: RAT, Strain/Sex: F344/FEMALE, Route: ORAL, Dose: 0, 25, 83, 250 PPM IN FEED FOR 24 MO, ADMINISTRATION BEGUN AT 8 WK OF AGE TO ANIMALS EXPOSED PERINATALLY BY ORAL DOS, Dose: 0, 25, 83, 250 PPM IN FEED FOR 24 MO, ADMINISTRATION BEGUN AT 8 WK OF AGE TO ANIMALS EXPOSED PERINATALLY BY ORAL DOS, Tumor Site: Type of Lesion: THYROID GLAND: FOLLICULAR CELL ADENOMA, FOLLICULAR CELL CARCINOMA): active; positive
carcinogen call (Species: RAT, Strain/Sex: F344/FEMALE, Route: ORAL, Dose: 0, 83, 250 PPM IN FEED FOR 24 MO (STUDY DURATION: 2 YR), Dose: 0, 83, 250 PPM IN FEED FOR 24 MO (STUDY DURATION: 2 YR), Tumor Site: Type of Lesion: THYROID GLAND: FOLLICULAR CELL ADENOMA, FOLLICULAR CELL CARCINOMA): active; positive
carcinogen call (Species: RAT, Strain/Sex: F344/MALE, Route: ORAL, Dose: 0, 25, 83, 250 PPM IN FEED FOR 24 MO, ADMINISTRATION BEGUN AT 8 WK OF AGE TO ANIMALS EXPOSED PERINATALLY BY DOSES TO, Dose: 0, 25, 83, 250 PPM IN FEED FOR 24 MO, ADMINISTRATION BEGUN AT 8 WK OF AGE TO ANIMALS EXPOSED PERINATALLY BY DOSES TO, Tumor Site: Type of Lesion: THYROID GLAND: FOLLICULAR CELL ADENOMA, FOLLICULAR CELL CARCINOMA): active; positive
carcinogen call (Species: RAT, Strain/Sex: F344/MALE, Route: ORAL, Dose: 0, 83, 250 PPM IN FEED FOR 24 MO (STUDY DURATION: 2 YR), Dose: 0, 83, 250 PPM IN FEED FOR 24 MO (STUDY DURATION: 2 YR), Tumor Site: Type of Lesion: THYROID GLAND: FOLLICULAR CELL ADENOMA, FOLLICULAR CELL CARCINOMA): active; positive
carcinogen call (Species: RAT, Strain/Sex: STRAIN-CD/MALE,FEMALE, Route: ORAL, Dose: 175, 350 PPM IN DIET FOR 78 WK, Tumor Site: Type of Lesion: THYROID GLAND: FOLLICULAR CARCINOMA): active; positive

CCC(C)[C@H]1O[C@]2(CC[C@@H]1C)CC1C[C@@H](C/C=C(\C)[C@@H](O[C@H]3C[C@H](OC)[C@@H](OC4C[C@H](OC)[C@@H](O)[C@H](C)O4)[C@H](C)O3)[C@@H](C)/C=C/C=C3\CO[C@@H]4[C@H](O)C(C)=C[C@@H](C(=O)O1)[C@]34O)O2 (stereo not given in full) (tested in a mixture with another compound)
carcinogen call (Species: RAT, Strain/Sex: WISTAR/MALE, Route: ORAL, Dose: 0, 2 PPM IN DIET FOR DURATION OF STUDY (STUDY DURATION: 1 YR)): inactive; negative

[Be+2]
carcinogen call (Species: RAT, Strain/Sex: WISTAR/FEMALE, Route: INTRATRACHEAL, Dose: 50 UG THEN 25 UG AFTER 10 MO, Tumor Site: Type of Lesion: LUNG: ADENOMA, ADENOCARCINOMA, ALVEOLAR/BRONCHIOLAR TUMOR): active; positive

Cl[C@@H]1C2(Cl)C3C4[C@@H]5O[C@@H]5[C@H]5C3[C@@](Cl)(C2(Cl)Cl)[C@]1(Cl)[C@@H]45 (stereo not given in full)
carcinogen call (Species: MOUSE, Strain/Sex: B6C3F1/FEMALE, Route: ORAL, Dose: 0, 0.32, 0.64 PPM IN DIET, Dose: 0, 0.32, 0.64 PPM IN DIET): inactive; negative
carcinogen call (Species: MOUSE, Strain/Sex: B6C3F1/MALE, Route: ORAL, Dose: 0, 0.32, 0.64 PPM IN DIET, Dose: 0, 0.32, 0.64 PPM IN DIET): inactive; negative
carcinogen call (Species: RAT, Strain/Sex: OSBORNE-MENDEL/FEMALE, Route: ORAL, Dose: 0, 3.4, 7.5 PPM IN DIET, TWA, Dose: 0, 3.4, 7.5 PPM IN DIET, TWA): inactive; negative
carcinogen call (Species: RAT, Strain/Sex: OSBORNE-MENDEL/MALE, Route: ORAL, Dose: 0, 5, 10 PPM IN DIET, Dose: 0, 5, 10 PPM IN DIET): inactive; negative

NC(N)=S
carcinogen call (Species: RAT, Route: ORAL, Tumor Site: Type of Lesion: LIVER, THYROID GLAND, EAR (ZYMBAL GLAND), Tumor Site: Type of Lesion: LIVER, THYROID GLAND, EAR (ZYMBAL GLAND)): active; positive

O[C@H]1C=Cc2nc3c(ccc4ccccc43)cc2[C@@H]1O
carcinogen call (Species: MOUSE, Strain/Sex: SWISS/FEMALE, Route: INTRAPERITONEAL, Dose: 0, 1.05 UMOL GIVEN AS 150 NMOL IN 5 µL DMSO WITHIN 24 HR OF BIRTH, 300 NMOL IN 10 µL DMSO ON D 8 OF LIFE, AND 600 NMOL I, Tumor Site: Type of Lesion: LUNG: ADENOMA): active; positive
carcinogen call (Species: MOUSE, Strain/Sex: SWISS/MALE, Route: INTRAPERITONEAL, Dose: 0, 1.05 UMOL GIVEN AS 150 NMOL IN 5 µL DMSO WITHIN 24 HR OF BIRTH, 300 NMOL IN 10 µL DMSO ON D 8 OF LIFE, AND 600 NMOL I, Tumor Site: Type of Lesion: LUNG: ADENOMA): active; positive
